Data reported in patent US20250250245A1, “TRIMETAZIDINE SALTS” (LES LABORATOIRES SERVIER, priority 2021, published 2025).
Where a name gives a salt, the structure may show the parent alone.

Assay: Trimetazidine nitrosamine formation in aqueous sodium nitrite solution (LC/MS dosage)
Assay type: physicochemical
Settings: 6 mg/mL in trimetazidine equivalent (low solubility), 40° C. for 22 hours
Procedure: In order to model the formation of trimetazidine nitrosamine during the formulation process, an aqueous solution of sodium nitrite was added to the trimetazidine salt. The sodium nitrite mimics the presence of nitrites in water and/or excipients during a drug product manufacturing process.
The trimetazidine salt, in an amount corresponding to 600 mg trimetazidine, was placed in 2 mL volumetric flask. […]
The solution was stirred at 40° C. for 22 hours. The trimetazidine nitrosamine dosage was performed by LC/MS.

Row | Molecule | Trimetazidine nitrosamine content
1 | COc1ccc(CN2CCNCC2)c(OC)c1OC.O=C(O)C(=O)O.O=C(O)C(=O)O [Comparative Example D] | 83.1 ppm

Same assay, conditions: 30 mg/mL in trimetazidine equivalent (low solubility), 40° C. for 22 hours

Row | Molecule | Trimetazidine nitrosamine content
2 | COc1ccc(CN2CCNCC2)c(OC)c1OC.O=C(O)C(=O)O [Comparative Example C] | 104.0 ppm

Same assay, conditions: 300 mg/mL in trimetazidine equivalent, stirred at 40° C. for 22 hours

Row | Molecule | Trimetazidine nitrosamine content
3 | COc1ccc(CN2CCNCC2)c(OC)c1OC.COc1ccc(CN2CCNCC2)c(OC)c1OC.O=C(O)CCCCC(=O)O [Example 1, Trimetazidine Hemiadipate] | 0.7 ppm
4 | COc1ccc(CN2CCNCC2)c(OC)c1OC.O=C(O)C=CC(=O)O [Comparative Example F] | 121.2 ppm
5 | Trimetazidine Hemifumarate [Example 5] | 0.1 ppm
6 | COc1ccc(CN2CCNCC2)c(OC)c1OC.Cl.Cl [Comparative Example E] | 22.0 ppm
7 | trimetazidine hemioxalate [Comparative Example B] | 1.1 ppm
8 | COc1ccc(CN2CCNCC2)c(OC)c1OC [Comparative Example A, Trimetazidine dihydrochloride] | 126.0 ppm
9 | Trimetazidine Hemisulfate [Example 4] | 0.6 ppm
10 | Trimetazidine Hemimalate [Example 3] | 0.7 ppm
11 | Trimetazidine Hemiphosphate [Example 7] | 0.6 ppm
12 | Trimetazidine Hemitartrate [Example 6] | 0.6 ppm
13 | COc1ccc(CN2CCNCC2)c(OC)c1OC.O=C(O)C=CC(=O)O [Comparative Example G] | 31.9 ppm
14 | Trimetazidine Hemisuccinate [Example 2] | 0.5 ppm

Assay: Solubility of the trimetazidine salts in the aqueous test solution
Assay type: physicochemical
Settings: 300 mg/mL in trimetazidine equivalent not used

Row | Molecule | Solubility
15 | COc1ccc(CN2CCNCC2)c(OC)c1OC.O=C(O)C(=O)O [Comparative Example C] | low solubilities
16 | COc1ccc(CN2CCNCC2)c(OC)c1OC.O=C(O)C(=O)O.O=C(O)C(=O)O [Comparative Example D] | low solubilities
